# System: bacteria in clinical bovine mastitis milk samples
# Test: Combined bacteria identification and antimicrobial susceptibility test (colour of wells, MIC) on clinical bovine mastitis milk samples
# Type: cell-based
# Experimental: Clinical bovine mastitis milk samples were collected by a vet clinic in South Island, New Zealand. Samples were stored in the freezer for several months and shipped frozen to the testing facility. In this Example, the term “clinical” means that dairy cows had clinical symptoms of an udder infection e.g. cow behaved unusual, milk clots, swollen udder among other typical symptoms. Testing was executed in microwell plate comprising of 24 wells (3×8 wells).
# In addition, 20 ul of clinical mastitis sample was added to each well with a laboratory pipette.
# (§1) Abbreviations • 1. 80 ul GC+10 ul Tell: 80 ul Giolitti Cantoni base broth+10 ul Tellurite solution (1%); • 2. 80 ul TSB/Esc/Fer Cit: 80 ul Tryptic soy broth containing 0.25% Esculin and 0.125% Ammonium Ferric Citrate; • 3. 80 ul TSB/Esc/Fer Cit+10 ul Genta: 80 ul Tryptic soy broth containing 0.25% Esculin and 0.125% Ammonium Ferric Citrate+10 ul of Gentamycin solution 10 mg/ml; • 4. 80 ul McC/PR25: 80 ul MacConkey broth (single strength) containing 0.0125% phenol red; and • 5. 80 ul TSB/PR25: 80 ul Tryptic soy broth containing 0.0125% phenol red. Bacteria Identification
# Columns A to C and rows 1 and 2 were used for bacteria identification. A1: coagulase positive Staph; A2: Staphylococci; B1: Strep group D; B2: Strep group D; C1: general enrichment media (gram+ and gram-bacteria); C2: coliform bacteria.
# Column A3 to A8: serial dilution of benzyl penicillin as potassium. Column B3 to B8: serial dilution of ceftiofur as hydrochloride. Column C3 to C8: serial dilution of cloxacillin as sodium. Antibiotic concentrations are listed as free form ranging between 4 ug/ml to 0.05 ug/ml.
# Minimum inhibitory substance concentration (MIC) is here defined as the concentration if a colour change occurs between two wells (one well remains red with drug concentration 1, the other one yellow with drug concentration 2, whereas drug concentration 1 is larger than drug concentration 2) then the MIC is the value of drug concentration 1.
# Table 21 indicates the microwell plate configuration #1; Drugs: Benzylpenicillin as potassium; Cloxacillin as sodium; Ceftiofur as hydrochloride; Drug concentration in each well (A3 to C8) is based on 80 μl composition+10 μl drug solution+20 μl clinical mastitis milk sample and equivalent to listed drug concentration in μg/ml; 20 ul of clinical bovine mastitis milk sample was added to each well (A1 to C8).
# In addition, each well received one drop of clinical sample from a transfer pipette which was on average about 35 mg. This was determined through weighing the well plate prior and after the addition of clinical mastitis samples. This weight was then divided by 24.
# as §1, with “•” for “Abbreviations •”, “red.” for “red. Bacteria Identification”
# Columns A to C and rows 1 and 2 were used for bacteria identification. A1: coagulase positive Staph; A2: Staphylococci; B1: Strep Group D; B2: -; C1: general enrichment media (gram+ and gram-); C2: coliform bacteria.
# Column A3 to A8: serial dilution of benzyl penicillin as potassium. Drug concentrations given as free form ranging between 4 ug/ml to 0.05 ug/ml. Column B3 to B8: serial dilution of ceftiofur as hydrochloride. Drug concentrations given as free form ranging between 4 ug/ml to 0.05 ug/ml. Column C3 to C8: serial dilution of cloxacillin as sodium. Drug concentrations given as free form ranging between 4 ug/ml to 0.05 ug/ml.
structure (smiles),measurement,setting,value
CC1(C)S[C@@H]2[C@H](NC(=O)Cc3ccccc3)C(=O)N2[C@H]1C(=O)O [benzyl penicillin],Colour of media in each well,"ID 5 to 8, T = 0 h (prior incubation, reference), plate configuration #2, drug 1 μg/ml",red
same,Colour of media in each well,"ID 5 to 8, T = 0 h (prior incubation, reference), plate configuration #2, drug 2 μg/ml",red
same,Colour of media in each well,"ID 5 to 8, T = 0 h (prior incubation, reference), plate configuration #2, drug 4 μg/ml",red
same,Colour of media in each well,"ID 6, T = 23h, 37° C., plate configuration #2, drug 0.05 μg/ml (Table 31)",yellow
same,Colour of media in each well,"ID 6, T = 23h, 37° C., plate configuration #2, drug 0.1 μg/ml (Table 31)",yellow
same,Colour of media in each well,"ID 6, T = 23h, 37° C., plate configuration #2, drug 0.5 μg/ml (Table 31)",yellow
same,Colour of media in each well,"ID 6, T = 23h, 37° C., plate configuration #2, drug 1 μg/ml (Table 31)",yellow
same,Colour of media in each well,"ID 6, T = 23h, 37° C., plate configuration #2, drug 2 μg/ml (Table 31)",yellow
same,Colour of media in each well,"ID 6, T = 23h, 37° C., plate configuration #2, drug 4 μg/ml (Table 31)",yellow
same,Colour of media in each well,"ID 6, T~7 h, 37° C., plate configuration #2, Table 35, drug 0.05 μg/ml",yellow
same,Colour of media in each well,"ID 6, T~7 h, 37° C., plate configuration #2, Table 35, drug 0.1 μg/ml",yellow
same,Colour of media in each well,"ID 6, T~7 h, 37° C., plate configuration #2, Table 35, drug 0.5 μg/ml",yellow
same,Colour of media in each well,"ID 6, T~7 h, 37° C., plate configuration #2, Table 35, drug 1 μg/ml",yellow
same,Colour of media in each well,"ID 6, T~7 h, 37° C., plate configuration #2, Table 35, drug 2 μg/ml",yellow
same,Colour of media in each well,"ID 6, T~7 h, 37° C., plate configuration #2, Table 35, drug 4 μg/ml",yellow
same,Colour of media in each well,"ID 6, T~11 h, 37° C., plate configuration #2, Table 35, drug 0.05 μg/ml",yellow
same,Colour of media in each well,"ID 6, T~11 h, 37° C., plate configuration #2, Table 35, drug 0.1 μg/ml",yellow
same,Colour of media in each well,"ID 6, T~11 h, 37° C., plate configuration #2, Table 35, drug 0.5 μg/ml",yellow
same,Colour of media in each well,"ID 6, T~11 h, 37° C., plate configuration #2, Table 35, drug 1 μg/ml",yellow
same,Colour of media in each well,"ID 6, T~11 h, 37° C., plate configuration #2, Table 35, drug 2 μg/ml",yellow
same,Colour of media in each well,"ID 6, T~11 h, 37° C., plate configuration #2, Table 35, drug 4 μg/ml",yellow
same,Colour of media in each well,"ID 6, T~23 h, 37° C., plate configuration #2, Table 35, drug 0.05 μg/ml",yellow
same,Colour of media in each well,"ID 6, T~23 h, 37° C., plate configuration #2, Table 35, drug 0.1 μg/ml",yellow
same,Colour of media in each well,"ID 6, T~23 h, 37° C., plate configuration #2, Table 35, drug 0.5 μg/ml",yellow
same,Colour of media in each well,"ID 6, T~23 h, 37° C., plate configuration #2, Table 35, drug 1 μg/ml",yellow
same,Colour of media in each well,"ID 6, T~23 h, 37° C., plate configuration #2, Table 35, drug 2 μg/ml",yellow
same,Colour of media in each well,"ID 6, T~23 h, 37° C., plate configuration #2, Table 35, drug 4 μg/ml",yellow
same,Colour of media in each well,"ID 7, T = 23h, 37° C., plate configuration #2, drug 0.05 μg/ml",yellow
same,Colour of media in each well,"ID 7, T = 23h, 37° C., plate configuration #2, drug 0.1 μg/ml",yellow
same,Colour of media in each well,"ID 7, T = 23h, 37° C., plate configuration #2, drug 0.5 μg/ml",red
same,Colour of media in each well,"ID 7, T = 23h, 37° C., plate configuration #2, drug 1 μg/ml",red
same,Colour of media in each well,"ID 7, T = 23h, 37° C., plate configuration #2, drug 2 μg/ml",red
same,Colour of media in each well,"ID 7, T = 23h, 37° C., plate configuration #2, drug 4 μg/ml",red
same,Colour of media in each well,"ID 8, T = 23 h, 37° C., plate configuration #2, drug 0.05 μg/ml",red
same,Colour of media in each well,"ID 8, T = 23 h, 37° C., plate configuration #2, drug 0.1 μg/ml",red
same,Colour of media in each well,"ID 8, T = 23 h, 37° C., plate configuration #2, drug 0.5 μg/ml",red
same,Colour of media in each well,"ID 8, T = 23 h, 37° C., plate configuration #2, drug 1 μg/ml",red
same,Colour of media in each well,"ID 8, T = 23 h, 37° C., plate configuration #2, drug 2 μg/ml",red
same,Colour of media in each well,"ID 8, T = 23 h, 37° C., plate configuration #2, drug 4 μg/ml",red
same,Colour of media in each well,"Table 24, sample ID 2, 22 hours at 37° C., plate configuration #1, row 3 of serial dilution 4 ug/ml to 0.05 ug/ml",orange
same,Colour of media in each well,"Table 24, sample ID 2, 22 hours at 37° C., plate configuration #1, row 4 of serial dilution 4 ug/ml to 0.05 ug/ml",orange
same,Colour of media in each well,"Table 24, sample ID 2, 22 hours at 37° C., plate configuration #1, row 5 of serial dilution 4 ug/ml to 0.05 ug/ml",orange
same,Colour of media in each well,"Table 24, sample ID 2, 22 hours at 37° C., plate configuration #1, row 6 of serial dilution 4 ug/ml to 0.05 ug/ml",yellow
same,Colour of media in each well,"Table 24, sample ID 2, 22 hours at 37° C., plate configuration #1, row 7 of serial dilution 4 ug/ml to 0.05 ug/ml",yellow
same,Colour of media in each well,"Table 24, sample ID 2, 22 hours at 37° C., plate configuration #1, row 8 of serial dilution 4 ug/ml to 0.05 ug/ml",yellow
same,MIC,"clinical sample ID 1 (streptococci group D), 37° C. for 22 hours, plate configuration #1",0.1 µg/mL
same,MIC,"clinical sample ID 2 (streptococci group D, also coagulase positive Staph), 37° C. for 22 hours, plate configuration #1",> 4 µg/mL
same,MIC,"clinical sample ID 4 (coagulase positive Staph), 37° C. for 22 hours, plate configuration #1",> 4 µg/mL
same,MIC,"clinical sample ID 5 (streptococci group D), 37° C. for 23 hours, plate configuration #2",< 0.05 µg/mL
same,MIC,"clinical sample ID 7 (coagulase positive Staph), 37° C. for 23 hours, plate configuration #2",0.5 µg/mL
same,MIC,"clinical sample ID 8 (coagulase negative Staph and Streptococci group D), 37° C. for 23 hours, plate configuration #2",< 0.05 µg/mL

# Reference: patent US10829796B2, “Bacteria identification and antimicrobial susceptibility test” (priority 2015, dated 2020)
